For assay [1], the target named is human GLP-1R (Homo sapiens (Human), UniProt P43220, L260F). In words: CHO GLP-1R Clone C6—Assay 2: HTRF cAMP cell-based functional agonist assay (low GLP-1R density). The following applies: for EC50: CHO GLP-1R Clone C6, cAMP HTRF, geometric mean; for Emax: read-out: Assay 2 Emax (%). On the technique in general: TR-FRET usually uses a lanthanide donor and a delayed reading to cut background.
Method: GLP-1R-mediated agonist activity was determined with a cell-based functional assay utilizing an HTRF (Homogeneous Time-Resolved Fluorescence) cAMP detection kit (cAMP HI Range Assay Kit; Cis Bio cat #62AM6PEJ) that measures cAMP levels in the cell. The method is a competitive immunoassay between native cAMP produced by the cells and exogenous cAMP labeled with the dye d2. The tracer binding is visualized by a mAb anti-cAMP labeled with Cryptate. The specific signal (i.e. energy transfer) is inversely proportional to the concentration of cAMP in either a standard or an experimental sample.
The human GLP-1R coding sequence (NCBI Reference Sequence NP_002053.3, including naturally-occurring variant Leu260Phe) was subcloned into pcDNA5-FRT-TO and a clonal CHO cell line stably expressing a low receptor density was isolated using the Flp-In™ T-Rex™ System, as described by the manufacturer (ThermoFisher).
Cells were removed from cryopreservation, re-suspended in 40 mL of Dulbecco's Phosphate Buffered Saline (DPBS-Lonza Cat #17-512Q) and centrifuged at 800×g for 5 min at 22° C. The DPBS was aspirated, and the cell pellet was re-suspended in 10 mL of complete growth medium (DMEM:F12 1:1 Mixture with HEPES, L-Gln, 500 mL (DMEM/F12 Lonza Cat #12-719F), 10% heat inactivated fetal bovine serum (Gibco Cat #16140-071), 5 mL of 100× Pen-Strep (Gibco Cat #15140-122), 5 mL of 100× L-Glutamine (Gibco Cat #25030-081), 700 μg/mL Hygromycin (Invitrogen Cat #10687010) and 15 μg/mL Blasticidin (Gibco Cat #R21001). A 1 mL sample of the cell suspension in growth media was counted on a Becton Dickinson ViCell to determine cell viability and cell count per mL. The remaining cell suspension was then adjusted with growth media to deliver 1600 viable cells per well using a Matrix Combi Multidrop reagent dispenser, and the cells were dispensed into a white 384 well tissue culture treated assay plate (Corning 3570). The assay plate was then incubated for 48 h at 37° C. in a humidified environment (95% O2, 5% CO2)
Varying concentrations of each compound to be tested (in DMSO) were diluted in assay buffer [HBSS with Calcium/Magnesium (Lonza/BioWhittaker cat #10-527F)/0.1% BSA (Sigma Aldrich cat #A7409-1L)/20 mM HEPES (Lonza/BioWhittaker cat #17-737E)] containing 100 μM 3-isobutyl-1-methylxanthin (IBMX; Sigma cat #15879). The final DMSO concentration in the compound/assay buffer mixture is 1%.
After 48 h, the growth media was removed from the assay plate wells, and the cells were treated with 20 μL of the serially diluted compound in assay buffer for 30 min at 37° C. in a humidified environment (95% O2, 5% CO2). Following the 30 min incubation, 10 μL of labeled d2 cAMP and 10 μL of anti-cAMP antibody (both diluted 1:20 in cell lysis buffer; as described in the manufacturer's assay protocol) were added to each well of the assay plate. The plates were then incubated at room temperature and after 60 minutes, changes in the HTRF signal were read with an Envision 2104 multi-label plate reader using excitation of 330 nm and emissions of 615 and 665 nm. Raw data were converted to nM cAMP by interpolation from a cAMP standard curve (as described in the manufacturer's assay protocol) and the percent effect was determined relative to a saturating concentration of the full agonist GLP-1 (1 μM) included on each plate. EC50 determinations were made from agonist dose response curves analyzed with a curve fitting program using a 4-parameter logistic dose response equation.

Assay [2] concerns the target human GLP-1R (Homo sapiens, UniProt P43220, G168S). In words: CHO GLP-1R Clone H6—Assay 1: HTRF cAMP cell-based functional agonist assay (high GLP-1R density). The following applies: for EC50: CHO GLP-1R Clone H6, cAMP HTRF, geometric mean.
Setting [3] is: CHO GLP-1R Clone C6, relative to saturating concentration of full agonist GLP-1 (1 μM), arithmetic mean.
[4] abbreviates: read-out: Assay 1 Emax (%), CHO GLP-1R Clone H6, relative to saturating concentration of full agonist GLP-1 (1 μM), arithmetic mean.

The source of these data is US10208019B2, “GLP-1 receptor agonists and uses thereof” (Pfizer Inc., priority 2016, dated 2019).

Counter-ions that a name gives are not always drawn. Like-named read-outs stand apart in the source and are kept apart here.

Chain of human GLP-1R (Homo sapiens (Human), UniProt P43220, L260F) (P43220 24-463 L260F): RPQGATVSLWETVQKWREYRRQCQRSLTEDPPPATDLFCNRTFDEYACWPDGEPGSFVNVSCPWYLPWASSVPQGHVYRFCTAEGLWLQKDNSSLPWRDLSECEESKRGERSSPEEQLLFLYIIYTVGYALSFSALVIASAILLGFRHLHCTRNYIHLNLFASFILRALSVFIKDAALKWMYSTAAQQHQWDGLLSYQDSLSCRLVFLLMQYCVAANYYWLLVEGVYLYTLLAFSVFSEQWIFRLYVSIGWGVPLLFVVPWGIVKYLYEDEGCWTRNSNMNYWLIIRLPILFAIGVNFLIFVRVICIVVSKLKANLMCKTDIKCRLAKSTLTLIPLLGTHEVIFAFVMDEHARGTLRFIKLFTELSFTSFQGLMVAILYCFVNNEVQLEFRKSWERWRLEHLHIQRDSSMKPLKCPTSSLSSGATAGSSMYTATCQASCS
Chain of human GLP-1R (Homo sapiens, UniProt P43220, G168S) (P43220 24-463 G168S limits assumed): as the sequence (P43220 24-463 L260F) above, with G145S, F237L counted along it

By EC50 is commonly meant the concentration giving half of the maximal effect. As usually defined, the Emax is the greatest response seen or fitted, relative to the assay's reference. In the case of `COCCn1c(CN2CCN(c3cccc(OCc4ccc(Cl)cc4F)n3)[C@H](C)C2)nc2ccc(C(=O)O)cc21` [Example 1A-14, 2-{[(3R)-4-{6-[(4-chloro-2-fluorobenzyl)oxy]pyridin-2-yl}-3-methylpiperazin-1-yl]methyl}-1-(2-methoxyethyl)-1H-benzimidazole-6-carboxylic acid], the concentration giving a half-maximal response (EC50) at human GLP-1R [1] is 1600 nM; at human GLP-1R [2] (read-out: Assay 1 EC50), 47 nM. Also, the maximum response (Emax) on human GLP-1R [1] (setting [3]) was found to be 81%; at human GLP-1R [2] (setting [4]), 71%.
On the same counts, the results for `Cn1cncc1Cn1c(CN2CCC(c3cccc(OCc4ccc(C#N)cc4F)n3)CC2)nc2ccc(C(=O)O)cc21` [Example 1A-16, 2-[(4-{6-[(4-cyano-2-fluorobenzyl)oxy]pyridin-2-yl}piperidin-1-yl)methyl]-1-[(1-methyl-1H-imidazol-5-yl)methyl]-1H-benzimidazole-6-carboxylic acid] are 14 nM, 1.5 nM, 82% and 86%.
On the same counts, the results for `Cn1cncc1Cn1c(CN2CCC(c3cccc(OCc4ccc(F)cc4F)n3)CC2)nc2ccc(C(=O)O)cc21` [Example 1A-17, 2-[(4-{6-[(2,4-difluorobenzyl)oxy]pyridin-2-yl}piperidin-1-yl)methyl]-1-[(1-methyl-1H-imidazol-5-yl)methyl]-1H-benzimidazole-6-carboxylic acid] are 45 nM, 2.4 nM, 95% and 87%.
`CCCn1cnnc1Cn1c(CN2CCC(c3cccc(OCc4ccc(Cl)cc4F)n3)CC2)nc2ccc(C(=O)O)cc21` [Example 1A-18, 2-[(4-{6-[(4-chloro-2-fluorobenzyl)oxy]pyridin-2-yl}piperidin-1-yl)methyl]-1-[(4-propyl-4H-1,2,4-triazol-3-yl)methyl]-1H-benzimidazole-6-carboxylic acid]: the results for the half-maximal effective concentration (EC50) at human GLP-1R [1] and on human GLP-1R [2] (read-out: Assay 1 EC50) were 110 nM and 6.4 nM, respectively. In addition, the figures for the Emax at human GLP-1R [1] (setting [3]) and at human GLP-1R [2] (setting [4]) were 94% and 90%, respectively.
With `C[C@H]1CN(c2cccc(OCc3ccc(Cl)cc3F)n2)CCN1Cc1nc2ccc(C(=O)O)cc2n1C[C@@H]1CCO1` [Example 1A-19, 2-{[(2S)-4-{6-[(4-chloro-2-fluorobenzyl)oxy]pyridin-2-yl}-2-methylpiperazin-1-yl]methyl}-1-[(2S)-oxetan-2-ylmethyl]-1H-benzimidazole-6-carboxylic acid], the concentration giving a half-maximal response (EC50) on human GLP-1R [1] was determined as 3.2 nM; on human GLP-1R [2] (read-out: Assay 1 EC50) it was 0.28 nM. The maximal effect (Emax) on human GLP-1R [1] (setting [3]) and on human GLP-1R [2] (setting [4]) was 84% throughout.
Consider `Cn1cnnc1Cn1c(CN2CCC(c3cccc(OCc4ccc(C#N)cc4F)n3)CC2)nc2ccc(C(=O)O)cc21` [Example 1A-20, 2-[(4-{6-[(4-cyano-2-fluorobenzyl)oxy]pyridin-2-yl}piperidin-1-yl)methyl]-1-[(4-methyl-4H-1,2,4-triazol-3-yl)methyl]-1H-benzimidazole-6-carboxylic acid], for which the EC50 on human GLP-1R [1] worked out at 880 nM; on human GLP-1R [2] (read-out: Assay 1 EC50) it was 44 nM. Further, the Emax at human GLP-1R [1] (setting [3]) was found to be 90%; at human GLP-1R [2] (setting [4]), 81%.
As to `N#Cc1ccc(COc2cccc(C3CCN(Cc4nc5ccc(C(=O)O)cc5n4C[C@@H]4CCCO4)CC3)n2)c(F)c1` [Example 1A-21, 2-[(4-{6-[(4-cyano-2-fluorobenzyl)oxy]pyridin-2-yl}piperidin-1-yl)methyl]-1-[(2S)-tetrahydrofuran-2-ylmethyl]-1H-benzimidazole-6-carboxylic acid], the EC50 at human GLP-1R [1] was 75 nM; at human GLP-1R [2] (read-out: Assay 1 EC50) it was 4.9 nM. Besides, the maximum response (Emax) is 83% at human GLP-1R [1] (setting [3]) and 77% on human GLP-1R [2] (setting [4]).
Turning to `CO[C@@H]1CCC[C@H]1n1c(CN2CCC(c3cccc(OCc4ccc(Cl)cc4F)n3)CC2)nc2ccc(C(=O)O)cc21` [Example 1A-27, 2-[(4-{6-[(4-chloro-2-fluorobenzyl)oxy]pyridin-2-yl}piperidin-1-yl)methyl]-1-[(1R,2R)-2-methoxycyclopentyl]-1H-benzimidazole-6-carboxylic acid], the half-maximal effective concentration (EC50) on human GLP-1R [1] stood at 1400 nM; on human GLP-1R [2] (read-out: Assay 1 EC50), 190 nM. Also, the maximal response (Emax) on human GLP-1R [1] (setting [3]) was 47%; at human GLP-1R [2] (setting [4]) it was 91%.
Consider `CO[C@H]1C[C@@H](Cn2c(CN3CCC(c4cccc(OCc5ccc(Cl)cc5F)n4)CC3)nc3ccc(C(=O)O)cc32)C1` [Example 1A-28, 2-[(4-{6-[(4-chloro-2-fluorobenzyl)oxy]pyridin-2-yl}piperidin-1-yl)methyl]-1-[(cis-3-methoxycyclobutyl)methyl]-1H-benzimidazole-6-carboxylic acid], for which the EC50 on human GLP-1R [1] is 7700 nM; at human GLP-1R [2] (Assay 1 EC50 (nM)), 300 nM. Moreover, the figures for the maximal effect (Emax) on human GLP-1R [1] (setting [3]) and at human GLP-1R [2] (setting [4]) were 100% and 92%, respectively.
Regarding `COC[C@@H]1C[C@H]1Cn1c(CN2CCC(c3cccc(OCc4ccc(Cl)cc4F)n3)CC2)nc2ccc(C(=O)O)cc21` [Example 1A-30, 2-[(4-{6-[(4-chloro-2-fluorobenzyl)oxy]pyridin-2-yl}piperidin-1-yl)methyl]-1-{[(1R,2R)-2-(methoxymethyl)cyclopropyl]methyl}-1H-benzimidazole-6-carboxylic acid], the half-maximal effective concentration (EC50) worked out at 4100 nM on human GLP-1R [1] and 150 nM at human GLP-1R [2] (read-out: Assay 1 EC50). Also, the Emax at human GLP-1R [1] (setting [3]) worked out at 110%; on human GLP-1R [2] (setting [4]) it was 86%.
Consider `Cn1c(CN2CCC(c3cccc(OCc4ccc(Cl)cc4F)n3)CC2)nc2ccc(C(=O)O)nc21` [Example 2A-01, 2-((4-(6-((4-Chloro-2-fluorobenzyl)oxy)pyridin-2-yl)piperidin-1-yl)methyl)-3-methyl-3H-imidazo[4,5-b]pyridine-5-carboxylic acid hydrochloride], for which the EC50 at human GLP-1R [1] stood at 1800 nM; at human GLP-1R [2] (read-out: Assay 1 EC50), 90 nM. The Emax on human GLP-1R [1] amounted to 89%; on human GLP-1R [2] (read-out: Assay 1 Emax (%)), 76%.
Regarding `COCCn1c(CN2CCC(c3cccc(OCc4ccc(Cl)cc4F)n3)CC2)nc2ncc(C(=O)O)cc21` [Example 2A-02, 2-((4-(6-((4-Chloro-2-fluorobenzyl)oxy)pyridin-2-yl)piperidin-1-yl)methyl)-1-(2-methoxyethyl)-1H-imidazo[4,5-b]pyridine-6-carboxylic acid hydrochloride], the EC50 on human GLP-1R [1] was 110 nM; on human GLP-1R [2] (read-out: Assay 1 EC50), 7.9 nM. The figures for the maximum response (Emax) at human GLP-1R [1] (setting [3]) and at human GLP-1R [2] (setting [4]) were 89% and 95%, respectively.
The like results for `Cn1c(CN2CCC(c3cccc(OCc4ccc(Cl)cc4F)n3)CC2)nc2cnc(C(=O)O)cc21` [Example 2A-03, 2-((4-(6-((4-Chloro-2-fluorobenzyl)oxy)pyridin-2-yl)piperidin-1-yl)methyl)-1-methyl-1H-imidazo[4,5-c]pyridine-6-carboxylic acid] were, in that order, 1200 nM, 150 nM, 44% and 74%.
On the same counts, the results for `Cn1c(CN2CCC(c3cccc(OCc4ccc(Cl)cc4F)n3)CC2)nc2ncc(C(=O)O)cc21` [Example 2A-04, 2-[(4-{6-[(4-chloro-2-fluorobenzyl)oxy]pyridin-2-yl}piperidin-1-yl)methyl]-1-methyl-1H-imidazo[4,5-b]pyridine-6-carboxylic acid] are 150 nM, 36 nM, 92% and 84%.
Take `O=C(O)c1cc2c(cn1)nc(CN1CCC(c3cccc(OCc4ccc(Cl)cc4F)n3)CC1)n2C[C@@H]1CCO1` [Example 2A-05, 2-[(4-{6-[(4-chloro-2-fluorobenzyl)oxy]pyridin-2-yl}piperidin-1-yl)methyl]-1-[(2S)-oxetan-2-ylmethyl]-1H-imidazo[4,5-c]pyridine-6-carboxylic acid]: the EC50 at human GLP-1R [1] was 150 nM; at human GLP-1R [2] (read-out: Assay 1 EC50) it was 6 nM. For the same molecule, the Emax at human GLP-1R [1] (setting [3]) was 84%; at human GLP-1R [2] (setting [4]), 73%.
On the same counts, the results for `O=C(O)c1cc2c(cn1)nc(CN1CCC(c3cccc(OCc4ccc(Cl)cc4F)n3)CC1)n2Cc1ncco1` [Example 2A-06, 2-[(4-{6-[(4-chloro-2-fluorobenzyl)oxy]pyridin-2-yl}piperidin-1-yl)methyl]-1-(1,3-oxazol-2-ylmethyl)-1H-imidazo[4,5-c]pyridine-6-carboxylic acid] are 170 nM, 9 nM, 85% and 82%.
`COCCn1c(CN2CCC(c3cccc(OCc4ccc(Cl)cc4F)n3)CC2)nc2cnc(C(=O)O)cc21` [Example 2A-07, 2-[(4-{6-[(4-chloro-2-fluorobenzyl)oxy]pyridin-2-yl}piperidin-1-yl)methyl]-1-(2-methoxyethyl)-1H-imidazo[4,5-c]pyridine-6-carboxylic acid]: the concentration for a half-maximal effect (EC50) on human GLP-1R [1] stood at 1600 nM; at human GLP-1R [2] (read-out: Assay 1 EC50), 140 nM. Moreover, the values for the Emax at human GLP-1R [1] (setting [3]) and on human GLP-1R [2] (setting [4]) were 46% and 72%, respectively.
On to `COCCn1c(CN2CCC(c3cccc(OCc4ccc(Cl)cc4F)n3)CC2)nc2ccc(C(=O)O)c(F)c21` [Example 2A-08, 2-[(4-{6-[(4-chloro-2-fluorobenzyl)oxy]pyridin-2-yl}piperidin-1-yl)methyl]-7-fluoro-1-(2-methoxyethyl)-1H-benzimidazole-6-carboxylic acid], for which the EC50 on human GLP-1R [1] came to 94 nM; at human GLP-1R [2] (read-out: Assay 1 EC50), 5.8 nM. Moreover, the values for the Emax on human GLP-1R [1] (setting [3]) and at human GLP-1R [2] (setting [4]) were 76% and 72%, respectively.
The like results for `Cn1c(CN2CCC(c3cccc(OCc4ccc(Cl)cc4F)n3)CC2)nc2cc(F)c(C(=O)O)cc21` [Example 2A-09, 2-[(4-{6-[(4-chloro-2-fluorobenzyl)oxy]pyridin-2-yl}piperidin-1-yl)methyl]-5-fluoro-1-methyl-1H-benzimidazole-6-carboxylic acid] were, in that order, 2200 nM, 120 nM, 83% and 76%.
